The test system of this assay is H10NX AIVs NA activity. It counts as biochemical.

Usually IC50 stands for the midpoint of a concentration-inhibition curve. On to `CC(=O)N[C@H]1[C@H]([C@H](O)[C@H](O)CO)OC(C(=O)O)=C[C@@H]1N=C(N)N` [Zanamivir, zanamivir], for which the “susceptibility of H10NX isolates to the drug (phenotypic assay)” value was “sensitive”. Moreover, under “read-out: mean IC50 values, range over the H10NX isolates tested”, the IC50 fell in the range of 0.7 to 1.3 nM.

Source of the values: publication PMC12654176 (Microorganisms, 2025).
